Laboratory results from ChEMBL document CHEMBL1201862, “PubChem BioAssay data set” (2004).
Active and inactive are the calls of the source.

Legend:
[1] = HGIII-sPLA2 enzyme inhibition potency – biochemical, QFRET, IC50, dose response (AID 743457);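 also: green fluorescence rise as the enzyme cleaves BODIPY PC-A2 in liposomes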
[2] = target: Major prion protein (Homo sapiens, UniProt P04156); format: functional, cell-based
[3] = cells
[4] = target: T1, COUP transcription factor 2 (Homo sapiens, UniProt P24468); test: Luminescence-based cell-based high throughput dose response assay to identify inhibitors of COUP-TFII (NR2F2).; format: functional;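 also: HEK293 cells transiently cotransfected with COUP-TFII expression vector and reporter; luciferase reporter luminescence driven by COUP-TFII from the pX2-168 reporter plasmid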
T1 sequence (P24468 whole entry): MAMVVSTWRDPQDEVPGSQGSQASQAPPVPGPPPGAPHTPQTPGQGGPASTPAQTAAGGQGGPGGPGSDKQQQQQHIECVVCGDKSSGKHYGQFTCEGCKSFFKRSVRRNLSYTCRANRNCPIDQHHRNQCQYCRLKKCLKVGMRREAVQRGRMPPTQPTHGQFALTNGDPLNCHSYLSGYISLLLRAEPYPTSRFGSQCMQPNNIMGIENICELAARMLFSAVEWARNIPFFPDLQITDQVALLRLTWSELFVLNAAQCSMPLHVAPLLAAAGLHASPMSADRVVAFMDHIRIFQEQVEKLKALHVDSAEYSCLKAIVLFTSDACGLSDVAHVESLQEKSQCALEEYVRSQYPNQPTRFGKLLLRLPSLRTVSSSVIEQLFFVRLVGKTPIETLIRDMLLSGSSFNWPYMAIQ

[5] = HEK-293T viability loss after treatment – luminescence, T-cell screen hits, cytotoxicity control for TCR NF-kB inhibitor project, dose response (AID 489026); format: functional, cell-based;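 also: cells exposed to compound about 14 hours before the viability readout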
[6] = target: T2, Nuclear receptor subfamily 0 group B member 1 (Homo sapiens, UniProt P51843); format: functional, cell-based;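 also: HEK293T cells transfected with SF-1 and DAX-1 plus StAR promoter luciferase reporter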
T2 sequence (P51843 whole entry): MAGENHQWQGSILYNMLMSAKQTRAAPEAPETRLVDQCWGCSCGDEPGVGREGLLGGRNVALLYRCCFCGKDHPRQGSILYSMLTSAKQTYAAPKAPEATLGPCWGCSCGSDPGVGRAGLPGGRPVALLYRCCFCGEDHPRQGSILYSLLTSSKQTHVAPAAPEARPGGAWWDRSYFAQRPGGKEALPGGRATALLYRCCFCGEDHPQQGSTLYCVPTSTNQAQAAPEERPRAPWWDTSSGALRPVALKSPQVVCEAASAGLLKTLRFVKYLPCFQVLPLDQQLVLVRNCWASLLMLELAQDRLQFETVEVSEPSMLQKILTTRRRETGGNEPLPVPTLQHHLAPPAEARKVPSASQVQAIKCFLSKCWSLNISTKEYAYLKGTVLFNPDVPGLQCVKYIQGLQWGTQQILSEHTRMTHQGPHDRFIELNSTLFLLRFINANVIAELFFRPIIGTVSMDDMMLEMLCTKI

[7] = cells; format: functional, cell-based
[8] = blockers of HIV-1 ZM109 envelope-driven cell-cell fusion – HeLa effector, CEM target cells, luciferase, cherry-pick, dose response (AID 652058); format: functional, cell-based;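 also: luciferase signal from HIV-1 Env mediated cell-cell fusion of effector and target cells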
[9] = blockers of HIV-1 envelope-mediated cell-cell fusion – cherry-pick, dose response (AID 652057); format: functional, cell-based
[10] = off-target signal loss in HeLa-CEM21 co-culture – HeLa F-luc CTL cells, cherry-picked, counter-screen for HIV-1 Env fusion inhibitor project, dose response (AID 652040); format: functional, cell-based;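 also: potency for signal decrease marking cytotoxic or nonspecific inhibition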
[11] = HIV-1 AD8 envelope cell-cell fusion blockers – cherry-pick, dose response (AID 652062); format: functional, cell-based;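 also: luciferase signal from cell-cell fusion driven by HIV-1 clade B AD8 Env; potency is for inhibitors of fusion seen as a drop in luminescence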
[12] = rise of 4N DNA cells, HeLa – IC50, dose response (AID 1117351); format: functional, cell-based
[13] = target: Beta-galactosidase (Escherichia coli, UniProt Q8VNN2); test: Dose response counterscreen for EBI2 assay utilizing the enzyme, b-galactosidase.; format: functional
[14] = viability loss in HepG2 hepatoma cells – cell-based, ATP luminescence, cherry-pick, activator set 2, cytotoxicity control, dose response (AID 1053143); format: functional
[15] = toxicity to human hepatoma HepG2 cells – cell-based, cherry-picked samples, cytotoxicity control, dose response (AID 1159577); format: functional
[16] = P. falciparum Dd2 growth inhibitors, dose response, SYBR Green, cherry-picked samples (AID 1159567); format: functional, cell-based
[17] = cells; format: functional, cell-based; remark: listed apart in the source
[18] = target: T3, Trace amine-associated receptor 1 (Homo sapiens, UniProt Q96RJ0); test: Fluorescence-based cell-based high throughput dose response assay to identify agonists of the human trace amine associated receptor 1 (TAAR1).; format: functional
T3 sequence (Q96RJ0 whole entry): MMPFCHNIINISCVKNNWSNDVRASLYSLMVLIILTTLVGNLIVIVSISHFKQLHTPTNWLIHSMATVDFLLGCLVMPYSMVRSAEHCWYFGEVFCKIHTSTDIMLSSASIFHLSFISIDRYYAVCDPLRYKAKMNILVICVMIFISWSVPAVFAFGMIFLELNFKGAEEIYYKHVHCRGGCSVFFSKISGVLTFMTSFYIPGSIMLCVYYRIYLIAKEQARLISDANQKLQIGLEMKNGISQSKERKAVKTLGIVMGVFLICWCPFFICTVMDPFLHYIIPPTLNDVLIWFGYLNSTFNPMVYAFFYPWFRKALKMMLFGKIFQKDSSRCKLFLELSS

[19] = target: T3, Trace amine-associated receptor 1; test: Counterscreen for agonists of the human trace amine associated receptor 1 (hTAAR1): Fluorescence-based cell-based high throughput dose response assay to identify hTAAR1 agonist that also desensitize TAAR1 receptor response.; format: functional
[20] = cells; format: functional, cell-based; remark: listed apart in the source
[21] = target: Estrogen receptor beta (Homo sapiens, UniProt Q92731);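 also: recombinant ER-beta bound to coactivator SRC1 peptide in presence of estradiol agonist; inhibitors block coactivator peptide binding and lower the FRET signal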
[22] = target: T4, Fructose-bisphosphate aldolase (Mycobacterium tuberculosis, UniProt P9WQA3); test: Fluorescence-based biochemical high throughput dose response assay for inhibitors of the fructose-bisphosphate aldolase (FBA) of M. tuberculosis.; format: functional
T4 sequence (P9WQA3 whole entry): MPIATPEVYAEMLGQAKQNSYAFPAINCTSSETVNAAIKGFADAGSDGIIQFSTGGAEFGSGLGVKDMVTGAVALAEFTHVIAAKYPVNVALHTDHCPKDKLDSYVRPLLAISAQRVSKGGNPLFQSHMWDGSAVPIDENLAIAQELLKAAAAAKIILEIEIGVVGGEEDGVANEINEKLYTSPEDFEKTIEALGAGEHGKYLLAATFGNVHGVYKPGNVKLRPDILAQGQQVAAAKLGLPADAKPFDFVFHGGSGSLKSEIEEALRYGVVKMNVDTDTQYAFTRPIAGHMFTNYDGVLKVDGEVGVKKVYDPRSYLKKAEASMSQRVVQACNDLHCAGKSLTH

[23] = tested on: Streptococcus; test: GAS UMAA2166 growth inhibition – luminescence, BacTiterGlo, counter-screen for streptokinase expression inhibitor project, dose response (AID 1915); format: functional, organism-based;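 also: potency for reduction of bacterial viability or growth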
[24] = target: T5, Heat shock factor protein 1 (Mus musculus, UniProt P38532); test: decrease of HSF1-responsive luciferase luminescence – cell-based, NIH3T3, dose retest, confirmation (AID 2382); format: functional;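 also: NIH3T3 fibroblasts with HSF1-driven luciferase reporter stressed by proteasome inhibitor MG132; luminescence from HSF1-driven luciferase expression after 8 hours of MG132 stress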
T5 sequence (P38532 whole entry): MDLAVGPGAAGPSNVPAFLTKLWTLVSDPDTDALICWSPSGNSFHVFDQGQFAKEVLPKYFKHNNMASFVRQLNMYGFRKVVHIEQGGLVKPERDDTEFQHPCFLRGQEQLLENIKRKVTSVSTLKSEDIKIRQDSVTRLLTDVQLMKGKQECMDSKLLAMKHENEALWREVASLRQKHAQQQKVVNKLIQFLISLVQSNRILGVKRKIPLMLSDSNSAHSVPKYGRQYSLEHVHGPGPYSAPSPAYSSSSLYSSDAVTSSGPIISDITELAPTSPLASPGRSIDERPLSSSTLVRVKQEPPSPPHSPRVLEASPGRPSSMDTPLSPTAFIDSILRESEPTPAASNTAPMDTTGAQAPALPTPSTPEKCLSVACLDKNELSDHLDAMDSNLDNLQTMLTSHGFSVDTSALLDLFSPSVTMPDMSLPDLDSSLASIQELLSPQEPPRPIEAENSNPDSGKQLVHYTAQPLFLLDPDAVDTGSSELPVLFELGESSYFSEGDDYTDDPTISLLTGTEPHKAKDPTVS

[25] = tested on: Streptococcus sp. 'group A'; test: Streptococcus pyogenes SK(-)GAS viability under kanamycin – luminescence, BacTiterGlo, confirmation, counter-screen for streptokinase expression inhibitor project, dose response (AID 1900); format: functional, organism-based
[26] = activation of miR-122 Renilla sensor silencing – cell-based, Huh7 psiCHECK-miR122, Renilla luciferase, cherry-picked, dose response (AID 651956); format: functional;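 also: huh7 hepatoma cells stably carrying a psiCHECK-2 miR-122 sensor plasmid; renilla luciferase signal reporting endogenous miR-122 activity after 48 h compound exposure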
[27] = target: T6, Small ubiquitin-related modifier 1 (Homo sapiens, UniProt P63165); test: SUMO1 protein-protein binding blockers, potency – biochemical, FRET, dose response (AID 624383); format: functional; details: read-out: IC50_Mean
[28] = target: T6, Small ubiquitin-related modifier 1; test: SUMO1 protein interaction blockers, potency – biochemical, fluorescence polarization, uHTS hits, dose response (AID 624382); format: functional; details: read-out: IC50_Mean

CC1=CC(C)(C)N=C(S)N1c1cccc2ccccc12
IC50 [1]: > 122 µM (inactive)

COc1cc(C(=O)Nc2scc(-c3ccc(C)cc3)c2C(=O)O)cc(OC)c1OC
IC50 [2]: 4.4 µM (active) | IC50 [3]: > 138 µM (inactive)

Cc1cc(-n2c(C)cc(C(=O)CSc3ncnc4ccccc34)c2C)no1
IC50 [4]: 6.08 µM (active) | IC50 [5]: > 80 µM (inactive)

Cc1cc(C)n2nc(C(=O)Nc3ccc4c(c3)OCCO4)nc2n1
IC50 [6]: > 67.5 µM (inactive) | IC50 [7]: > 67.5 µM (inactive)

CC[C@@]12C(=O)N(c3cccc(Br)c3)C(=O)N1[C@H](c1ccc(OC)cc1)[C@@H]1C(=O)N(C(C)(C)C)C(=O)[C@@H]12
AC50 [8]: 0.581 µM (active) | AC50 [9]: 0.326 µM (active) | AC50 [10]: 0.509 µM (active) | AC50 [11]: 0.627 µM (active)

CC[C@@]1(O)C(=O)OCc2c1cc1n(c2=O)Cc2c-1nc1ccccc1c2/C=N/OC(C)(C)C
IC50 [12]: > 10 µM (inactive)

Cc1ccsc1C1Nc2ccc3ncccc3c2C2=C1C(=O)CC(C)(C)C2 (centres undefined)
IC50 [13]: > 80 µM (inactive)

COc1ccc(C(=O)COc2ccc(C)cc2NC(C)=O)cc1
AC50 [14]: > 52 µM (inactive)

O=C1CC2(CCN(C(=O)COc3ccc(Cl)cc3)CC2)Oc2ccccc21
IC50 [13]: > 80 µM (inactive)

N#C[C@@H]1[C@H](c2ccc(C#CCC3CCCC3)cc2)[C@H](CO)N1C(=O)c1ccccn1
AC50 [15]: 26 µM (active) | AC50 [16]: 3.37 µM (active)

CSc1ccc(CN2CCN(C(=O)COc3ccc(C)cc3)CC2)cc1
IC50 [13]: > 80 µM (inactive)

O=C(CCN1CCCC1Cc1ccccc1)c1ccc2c(c1)OCCO2 (centres undefined)
IC50 [17]: > 29.9 µM (inactive) | EC50 [18]: 0.3 µM (active) | IC50 [19]: > 9.97 µM (active) | EC50 [20]: > 29.9 µM (inactive)

CN(C)CCN(C(=O)c1ccc2c(c1)CCCC2)c1nc2cc3c(cc2s1)OCCO3
IC50 [6]: > 67.5 µM (inactive) | IC50 [7]: > 67.5 µM (inactive)

O=S(=O)(O)c1nc2ccccc2n1Cc1ccccc1
IC50 [21]: > 50 µM (not active)

CCOc1ccc2oc(C(=O)OCC(=O)NC3CCCC3)c(C)c2c1
IC50 [22]: 2.59 µM (active)

COc1ccc(C(=O)NC(=S)NNC(=O)c2ccco2)cc1
EC50 [23]: 17.3 µM (active) | EC50 [24]: > 195 µM (not active) | EC50 [25]: 6.65 µM (active) | IC50 [1]: > 122 µM (inactive)

C(=C\c1ccco1)/c1nc2ccccc2[nH]1
AC50 [14]: 26 µM (active)

c1ccc(CN(CC2=NCCN2)c2ccccc2)cc1 [ANTAZOLINE PHOSPHATE]
IC50 [17]: > 29.9 µM (inactive) | EC50 [18]: > 9.97 µM (active) | IC50 [19]: > 29.9 µM (inactive) | EC50 [20]: > 29.9 µM (inactive)

CC(=O)N1c2ccc(S(=O)(=O)N3CCCC(C(=O)Nc4cc(C)cc(C)c4)C3)cc2CC1C (centres undefined)
IC50 [2]: 10.4 µM (inactive) | IC50 [3]: > 138 µM (inactive)

N#Cc1nc(-c2cccs2)oc1N1CCN(Cc2ccccc2)CC1
IC50 [22]: 0.849 µM (active)

CCCNC(=O)N1CC2(CCN(S(=O)(=O)c3ccc(OC)cc3)CC2)c2c(n(C)c3cc(OC)ccc23)[C@@H]1CO
AC50 [15]: > 39 µM (inactive) | AC50 [16]: 3.11 µM (active)

CCOC(=O)c1cccc(NC(=O)c2cccs2)c1
IC50 [21]: > 50 µM (not active)

CN(c1ccccc1)S(=O)(=O)c1ccc(C(=O)Nc2cccc(S(=O)(=O)N3CCOCC3)c2)cc1
AC50 [26]: 59.3 µM (active)

COc1cccc(C(=O)N[C@H](C(=O)N2CCC[C@H]2C(=O)NCCc2ccccc2Cl)c2ccccc2)c1
IC50 [17]: > 29.9 µM (inactive) | EC50 [18]: 6.46 µM (active) | IC50 [19]: 7.36 µM (active) | EC50 [20]: > 29.9 µM (inactive)

C=C(C)C(=O)Nc1ccc2c(c1)OCCOCCOCCO2
IC50 [27]: 1.74 µM (active) | IC50 [28]: > 66.6 µM (inactive)

COc1ccc([C@@H]2[C@@H]3C(=O)N(C(C)(C)C)C(=O)[C@@H]3[C@]3(CC(C)C)C(=O)N(c4ccccc4)C(=O)N23)cc1
AC50 [8]: 1.13 µM (active) | AC50 [9]: 0.737 µM (active) | AC50 [10]: 0.732 µM (active) | AC50 [11]: 1.88 µM (active)

O=C(NCC1(N2CCCCC2)CCCCC1)c1cccc(S(=O)(=O)Nc2ccc(F)cc2)c1
IC50 [6]: > 67.5 µM (inactive) | IC50 [7]: > 67.5 µM (inactive)
